Data from US20110021505A1, “Use of sulfonyl-substituted 2-sulfonylaminobenzoic acid N-phenylamides in the treatment of pain” (SANOFI-AVENTIS DEUTSCHLAND GMBH, priority 2007, published 2011).

System: tactile allodynia induced in a hind paw by surgical lesion of the sciatic nerve
Assay: Anti-allodynic effect in the spared nerve injury (SNI) model of neuropathic pain in mice after oral administration
Assay type: in vivo, male C57B6 mice
Settings: for Mean PWT (paw withdrawal threshold) ± SEM / DeltaAUC1 h-6 h of PWL (mean ± SEM): N=4; for Statistical evaluation vs. control (DeltaAUC1 h-6 h): 1-way ANOVA & Dunnett; for DeltaAUC1 h-6 h of PWL (mean ± SEM): AUC contralateral minus ipsilateral paws, 1 h to 6 h after administration
Description: In this in vivo mouse model of chronic neuropathic pain the effect on tactile allodynia, a painful sensation after a normally not painful mechanical stimulus, which had been induced in a hind paw by surgical lesion of the sciatic nerve, was determined by measuring the paw withdrawal threshold (PWT), i.e. the exerted force (expressed in grams) at which the mouse withdrew its hind paw.
Tactile allodynia was determined at both hind paws, i.e. ipsilateral and contralateral to the lesion if determined subsequent to surgery, with the automatic von Frey test in which the plantar skin of the hind paws was exposed to a pressure stimulus of increasing intensity up to 5 grams using a dump needle stick. The force in grams at which the animal responded withdrawal of the hind paw (paw withdrawal threshold, PWT), was used as a measure of tactile allodynia.
Two test groups and one control group of animals were used each consisting of four male C57B6 mice. In all groups, baseline PWT values (BL) were determined before surgery. For induction of neuropathic pain then, under general anesthesia, in all groups the two major branches of the sciatic nerve were ligated and transected, with the sural nerve left intact (spared nerve injury, SNI). In this model of neuropathic pain, tactile allodynia developed completely within two days after nerve transection in the hind paw ipsilateral to the lesion and remained stable in the control group over the complete observation period of the experiment.
7 days after surgery, immediately before administration of the test compound, i.e. at the time 0 h, in all groups PWT values were determined for the injured ipsilateral hind paw and the non-injured contralateral hind paw. Then either the test compound or vehicle was administered to the animals orally by gavage. In the test groups, mice received 100 μl/10 g body weight of a suspension of the test compound in vehicle MC/T80 comprising 0.3 mg/ml or 3 mg/ml (prepared as described in pharmaceutical example A) for attaining a dosage of 3 mg/kg body weight and 30 mg/kg body weight, respectively. In the control group, mice analogously received 100 μl/10 g body weight of vehicle MC/T80. 1 h, 2 h, 4 h and 6 h after administration, PWT values were determined.
The given PWT values (in grams) are the mean±SEM (standard error of the mean) of the PWT measurements performed with the ipsilateral hind paw and the contralateral hind paw, respectively, of each animal of the indicated group (N (number of animals)=4) at the time points 0 h (i.e. before administration of test compound or vehicle) and 1 h, 2 h, 4 h and 6 h after administration of test compound or vehicle, as well as the baseline PWT values (BL) determined before surgery.
For the statistical analysis, PWT values were used in two ways, first with a 2-way ANOVA test based on the PWT values and second with a 1-way ANOVA test based on area under the curve (AUC) values for the time period of 6 h after application of the test compound or vehicle. A repeated measures 2-way ANOVA test (factor treatment and repeated measures factor time) was performed on PWT measurements. In case the interaction (treatment×time) was statistically significant, a Winer complementary analysis was done to investigate the effect of treatment for each time point. A Dunnett's test was used to study the potential differences between the control group and the test groups.
As a quantitative measure of the efficacy of a test compound over an extended time period, the area under the curve (AUC) of the individual PWT values for the time period from 1 h to 6 h after administration of test compound or vehicle (AUC1 h-6 h) was determined for the ipsilateral paws of each group and the obtained value subtracted from the value determined for the contralateral paws of the same group to give DeItaAUC1 h-6 h values for each group. […]

O=C(Nc1ccc(S(=O)(=O)N2CCOCC2)cc1)c1cc(Cl)ccc1NS(=O)(=O)c1ccc(Cl)s1.[Na] [Example 94, 5-Chloro-2-(5-chloro-thiophene-2-sulfonylamino)-N-(4-(morpholine-4-sulfonyl)-phenyl)-benzamide sodium salt]
Mean PWT (paw withdrawal threshold) ± SEM (3 mg/kg body weight group, BL baseline before surgery): 4.75 grams | Mean PWT (paw withdrawal threshold) ± SEM (3 mg/kg body weight group, injured ipsilateral paw, 0 h (before administration)): 1.58 grams | Mean PWT (paw withdrawal threshold) ± SEM (3 mg/kg body weight group, non-injured contralateral paw, 0 h (before administration)): 4.84 ± 0.11 grams | Statistical evaluation vs. control (DeltaAUC1 h-6 h) (3 mg/kg body weight oral): *** (significant, p < 0.0001 (ANOVA & Dunnett)) | DeltaAUC1 h-6 h of PWL (mean ± SEM) (3 mg/kg body weight oral): 4.60 ± 1.20 | Anti-allodynic effect on PWT vs. control (2-way ANOVA, Dunnett) (3 mg/kg body weight oral, from 1 h to 4 h after administration): Statistically significant ant-allodynic effects | Mean PWT (paw withdrawal threshold) ± SEM (3 mg/kg body weight oral, injured ipsilateral paw, 1 h after administration): 2.96 grams | Mean PWT (paw withdrawal threshold) ± SEM (3 mg/kg body weight oral, injured ipsilateral paw, 2 h after administration): 4.64 ± 0.11 grams | Mean PWT (paw withdrawal threshold) ± SEM (3 mg/kg body weight oral, injured ipsilateral paw, 4 h after administration): 4.12 ± 0.17 grams | Mean PWT (paw withdrawal threshold) ± SEM (3 mg/kg body weight oral, injured ipsilateral paw, 6 h after administration): 2.50 ± 0.40 grams | Mean PWT (paw withdrawal threshold) ± SEM (3 mg/kg body weight oral, non-injured contralateral paw, 1 h after administration): 4.66 ± 0.14 grams | Mean PWT (paw withdrawal threshold) ± SEM (3 mg/kg body weight oral, non-injured contralateral paw, 2 h after administration): 4.95 ± 0.02 grams | Mean PWT (paw withdrawal threshold) ± SEM (3 mg/kg body weight oral, non-injured contralateral paw, 4 h after administration): 4.61 ± 0.13 grams | Mean PWT (paw withdrawal threshold) ± SEM (3 mg/kg body weight oral, non-injured contralateral paw, 6 h after administration): 4.82 grams | Mean PWT (paw withdrawal threshold) ± SEM (30 mg/kg body weight group, BL baseline before surgery): 4.70 grams | Mean PWT (paw withdrawal threshold) ± SEM (30 mg/kg body weight group, injured ipsilateral paw, 0 h (before administration)): 1.91 grams | Mean PWT (paw withdrawal threshold) ± SEM (30 mg/kg body weight group, non-injured contralateral paw, 0 h (before administration)): 4.69 ± 0.23 grams | Statistical evaluation vs. control (DeltaAUC1 h-6 h) (30 mg/kg body weight oral): *** (significant, p < 0.0001 (ANOVA & Dunnett)) | DeltaAUC1 h-6 h of PWL (mean ± SEM) (30 mg/kg body weight oral): 1.52 ± 0.94 | Anti-allodynic effect on PWT vs. control (2-way ANOVA, Dunnett) (30 mg/kg body weight oral, from 1 h to 6 h after administration): Statistically significant ant-allodynic effects | Mean PWT (paw withdrawal threshold) ± SEM (30 mg/kg body weight oral, injured ipsilateral paw, 1 h after administration): 3.70 grams | Mean PWT (paw withdrawal threshold) ± SEM (30 mg/kg body weight oral, injured ipsilateral paw, 2 h after administration): 4.66 ± 0.10 grams | Mean PWT (paw withdrawal threshold) ± SEM (30 mg/kg body weight oral, injured ipsilateral paw, 4 h after administration): 4.51 ± 0.17 grams | Mean PWT (paw withdrawal threshold) ± SEM (30 mg/kg body weight oral, injured ipsilateral paw, 6 h after administration): 4.24 ± 0.08 grams | Mean PWT (paw withdrawal threshold) ± SEM (30 mg/kg body weight oral, non-injured contralateral paw, 1 h after administration): 4.82 ± 0.10 grams | Mean PWT (paw withdrawal threshold) ± SEM (30 mg/kg body weight oral, non-injured contralateral paw, 2 h after administration): 4.84 ± 0.10 grams | Mean PWT (paw withdrawal threshold) ± SEM (30 mg/kg body weight oral, non-injured contralateral paw, 4 h after administration): 4.70 ± 0.19 grams | Mean PWT (paw withdrawal threshold) ± SEM (30 mg/kg body weight oral, non-injured contralateral paw, 6 h after administration): 4.55 grams | Improvement of DeltaAUC1 h-6 h over vehicle control (1-way ANOVA) (both dosages, 3 mg/kg and 30 mg/kg body weight oral): significant improvement over the control group
